Data reported in article PMC8819291, “Adaptively evolved human oral actinomyces‐sourced defensins show therapeutic potential” (EMBO Molecular Medicine, 2021).
Where two headings read alike, the source gives them in different places. Where a SMILES comes first, the peptide text is derived from it. Bridges are numbered along the chain shown (N, C = ends).

Key:
[1] = target: HNP1&2 (Homo sapiens, UniProt P59665); assay: Bio-affinity ESI-MS for non-covalent complexes; format: binding; conditions: 52.5 μM AMSIN and 73.5 μM HNP1&2 in 25 mM NH4OAc (pH5.2)
Chain of HNP1&2 (P59665 66-94 limits assumed): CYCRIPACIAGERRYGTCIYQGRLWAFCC
Description: (§1) All components for interactions were dissolved in 25 mM ammonium acetate (pH5.2). Electrospray spectra were recorded with Waters SynaptG2‐Si mass spectrometer (Waters, Manchester, UK) and measurements were performed with positive ESI in resolution mode. Ions were scanned in a mass range of 500–2,000 m/z with the following conditions: the capillary voltage at 1,500 V; the cone voltage at 40 V; the source block temperature at 30°C. Spectra were recorded and processed by the software Masslynx4.1 (Waters, Manchester, UK).

[2] = target: T1, hLZc (lysozyme C) (Homo sapiens, UniProt P61626); assay: Bio-affinity ESI-MS for non-covalent complexes; format: binding; conditions: 52.5 μM AMSIN and 50 μM hLZc in 25 mM NH4OAc (pH5.2)
T1 construct: lysozyme C) isolated from human saliva; from tissue; host or cells: human saliva
T1 sequence (P61626 19-148): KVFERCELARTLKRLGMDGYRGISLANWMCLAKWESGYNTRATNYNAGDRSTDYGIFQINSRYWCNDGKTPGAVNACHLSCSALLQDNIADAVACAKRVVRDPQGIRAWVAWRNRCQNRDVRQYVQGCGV
Description: as §1

[3] = system: MRSA P1374; assay: Cytoplasmic accumulation of UMP; format: cell-based, Staphylococcus aureus; conditions: 20 × C L, 30 min; RP-HPLC, UV 260 nm
Description: To analyze the cytoplasmic nucleotide pool, we carried out the cytoplasmic UMP accumulation experiment according to the literature (Brötz et al, [1997]) with some modifications. MRSA P1374 cells were grown in 40‐ml broth medium at 37°C to an OD600 of 0.5. The culture was supplemented with 130 μg/ml chloramphenicol. […] After 30 min of incubation, UMP was extracted from the harvested cells by stirring them into boiling water. The suspension was then centrifuged (43,000 g, 60 min) at 4°C and the supernatant was lyophilized and dissolved in 400 μl of 50 mM ammonium acetate (pH 5.2) and adjusted to pH 2.0 with acetic acid. After acidification, the supernatant was fractionated by RP‐HPLC on Hypersil ODS (250 × 4.6 mm; Thermo Scientific) and UMP was eluted from the column with a linear gradient from 0 to 40% methanol in 50 mM NH4Ac (pH 5.2) within 40 min with a flow rate of 1 ml/min. UV absorbance was monitored at 260 nm. UMP was identified by ultraperformance liquid chromatography–high resolution mass spectrometry (UPLC‐HRMS) and MALDI‐TOF. Both methods yielded consistent results.

[4] = system: fresh erythrocytes from the female ICR mice; assay: Hemolysis assay; format: cell-based, Mus musculus
Description: Hemolytic activity of peptides against fresh erythrocytes from the female ICR mice (Mus musculus) (25 g, 6 weeks of age) was assayed according to the standard method (Zhu et al, [2012]). Peptides were diluted with 0.9% NaCl to the indicated concentration. The percentage of hemolysis is determined as (A pep–A blank)/(A tot–A blank) × 100, in which “A” represents absorbance measured at 570 nm. A blank and A pep were evaluated in the absence or presence of peptides. One hundred percent hemolysis (A tot) was obtained in the presence of 1% Triton X‐100.

[5] = system: HEK 293; conditions: 25 µM (Appendix Fig S14), 72 h, CCK‐8
Description: Cells were cultured at 37°C in 5% CO2: 95% air incubator in Minimum Essential Medium (MEM) supplemented with 10% (v/v) fetal bovine serum (FBS). Cells were seeded at a density of 7 × 10^3 cells per well in 96‐well plates and incubated for 24 h. Media were then replaced with 200 μl of media containing various concentrations of peptides. The cells were incubated for 72 h and cytotoxicity was assessed with CCK‐8 Kits (Dojindo Molecular Technologies, Tokyo, Japan). Absorbance was detected at 450 nm with the TECAN Infinite M200 microplate reader (Tecan, Durham, USA).

[6] = system: salmon sperm DNA; conditions: 1.0 nmol AMSIN + salmon sperm DNA 6.6 mg/ml
Description: The rationality behind this experiment is that if a reduction in the inhibition‐zone size in the presence of DNA, it would indicate that the peptide binding to the DNA causes the loss of antibacterial activity. […] Inhibition zones were recorded and compared with the control without the DNA.

[7] = system: A549 cells; assay: Peptide-induced IL-8 release (ELISA); format: cell-based, human; conditions: 24 h
Description: A549 and HL‐60 cells were purchased from the Cell Resource Center of the Chinese Academy of Medical Sciences (Beijing, China). They were tested for mycoplasma contamination with the Mycoplasma Detection Kit (Solarbio, China) and only negative cultures were used in our experiments. The cells were cultured in complete Dulbecco’s Modified Eagle Medium (DMEM) supplemented with 10% fetal bovine serum (FBS), penicillin (100 units/ml), and streptomycin ([…]) at 37°C in 5% CO2. The culture medium was changed every 2 days. Cells were passaged every 4–5 days with 0.25% trypsin (Gibco, USA). For enzyme‐linked immunosorbent assay (ELISA) (Hara et al, [2008]), A549 or HL‐60 cells were seeded in six‐well plates at a density of 1 × 10^5 cells/well and were incubated at 37°C in 5% CO2 overnight. Medium was aspirated and replaced with fresh complete DMEM supplemented with 10% FBS or serum‐free medium, both containing different concentrations of polypeptides for 24 h. Then, the supernatants were harvested for quantification of the IL‐8 amount in A549 by the Human CXCL8/IL‐8 Quantikine ELISA Kit (R&D Systems Inc., Minneapolis, MN, USA) and the MCP‐1 amount in HL‐60 by the Human MCP‐1 ELISA Kit (Boster Biological Technology Co., Ltd, Wuhan, China) as per the manufactures’ instructions.

## CC[C@H](C)[C@@H]1NC(=O)[C@H](CCCCN)NC(=O)CNC(=O)[C@H](CCCNC(=N)N)NC(=O)[C@@H]2CSSC[C@H](NC(=O)CNC(=O)[C@H](Cc3ccccc3)NC(=O)CN)C(=O)N3CCC[C@H]3C(=O)N[C@@H](Cc3c[nH]c4ccccc34)C(=O)N[C@@H](CC(N)=O)C(=O)N[C@@H](C)C(=O)N[C@@H](Cc3ccc(O)cc3)C(=O)N[C@@H](CCC(=O)O)C(=O)N[C@H]3CSSC[C@H](NC(=O)[C@H]([C@@H](C)O)NC(=O)[C@H](CCC(N)=O)NC(=O)[C@H](CCCNC(=N)N)NC1=O)C(=O)N[C@@H](Cc1c[nH]cn1)C(=O)N[C@H](C(=O)N[C@@H](Cc1ccc(O)cc1)C(=O)O)CSSC[C@H](NC(=O)[C@H](Cc1c[nH]cn1)NC(=O)[C@H](CCCNC(=N)N)NC(=O)[C@H](CC(=O)O)NC3=O)C(=O)N[C@@H](C(C)C)C(=O)N[C@@H](CO)C(=O)N[C@@H](CCCCN)C(=O)NCC(=O)N[C@@H](Cc1ccc(O)cc1)C(=O)N[C@@H]([C@@H](C)O)C(=O)NCC(=O)NCC(=O)N[C@@H](CC(N)=O)C(=O)N2 [AMSIN] (H-GFGCPWNAYECDRHCVSKGYTGGNCRGKIRQTCHCY-OH; disulfide 4-25, 11-33, 15-35; N-terminus and C-terminus assumed)
[1]
  Complex formation by ESI-MS: no complex formation
[2]
  Complex formation by ESI-MS: no complex formation
[3]
  Cytoplasmic accumulation of UMP: accumulated
[4]; 6.25 μM, absorbance 570 nm, 100% = 1% Triton X‐100, technical replicate 1
  Hemolysis (%): 1.49%
[4]; 6.25 μM, technical replicate 2
  Hemolysis (%): 1.24%
[4]; 6.25 μM, technical replicate 3
  Hemolysis (%): 1.65%
[4]; 12.5 μM, technical replicate 1
  Hemolysis (%): 2.48%
[4]; 12.5 μM, technical replicate 2
  Hemolysis (%): 1.98%
[4]; 12.5 μM, technical replicate 3
  Hemolysis (%): 2.04%
[4]; 25 μM, technical replicate 1
  Hemolysis (%): 6.96%
[4]; 25 μM, technical replicate 2
  Hemolysis (%): 5.2%
[4]; 25 μM, technical replicate 3
  Hemolysis (%): 5.2%
[5]
  Viability of HEK 293: did not affect the viability
[6]; replicate 1
  Inhibition zone: 9.5 mm
[6]; replicate 2
  Inhibition zone: 10 mm
[6]; replicate 3
  Inhibition zone: 9.5 mm
[7]; FBS-containing medium, 25 μg/mL, replicate 1
  IL-8: 93 pg/mL
[7]; FBS-containing medium, 25 μg/mL, replicate 2
  IL-8: 101 pg/mL
[7]; FBS-containing medium, 25 μg/mL, replicate 3
  IL-8: 99 pg/mL
[7]; FBS-containing medium, 50 μg/mL, replicate 1
  IL-8: 116 pg/mL
[7]; FBS-containing medium, 50 μg/mL, replicate 2
  IL-8: 121 pg/mL
[7]; FBS-containing medium, 50 μg/mL, replicate 3
  IL-8: 122 pg/mL
[7]; FBS-containing medium, 100 μg/mL, replicate 1
  IL-8: 111 pg/mL
[7]; FBS-containing medium, 100 μg/mL, replicate 2
  IL-8: 103 pg/mL
[7]; FBS-containing medium, 100 μg/mL, replicate 3
  IL-8: 106 pg/mL
[7]; Serum-Free medium, 25 μg/mL, replicate 1
  IL-8: 51 pg/mL
[7]; Serum-Free medium, 25 μg/mL, replicate 2
  IL-8: 40 pg/mL
[7]; Serum-Free medium, 25 μg/mL, replicate 3
  IL-8: 42 pg/mL
[7]; Serum-Free medium, 50 μg/mL, replicate 1
  IL-8: 40 pg/mL
[7]; Serum-Free medium, 50 μg/mL, replicate 2
  IL-8: 48 pg/mL
[7]; Serum-Free medium, 50 μg/mL, replicate 3
  IL-8: 42 pg/mL
[7]; Serum-Free medium, 100 μg/mL, replicate 1
  IL-8: 67 pg/mL
[7]; Serum-Free medium, 100 μg/mL, replicate 2
  IL-8: 78 pg/mL
[7]; Serum-Free medium, 100 μg/mL, replicate 3
  IL-8: 67 pg/mL
